{
  "source": "PubChem BioAssay AID2060909",
  "about": "(Molecular Pharmacology Branch, DTP, NCI, 2025);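 further: spheroids exposed to the agents for 7 days before readout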;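 on viability, T/C: luminescence viability as percent of DMSO vehicle control wells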",
  "system": "362531-283-R-J2-PDC complex spheroid viability",
  "assay": "Anticancer human tumor 362531-283-R-J2-PDC patient-derived colon adenocarcinoma cell line growth inhibition [RAS]",
  "details": "for IC50: curve of first compound; for viability, T/C: stronger effect = lower value",
  "in_short": "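Agents were tested in combination matrices in half-log decrements from a top concentration at or near clinical Cmax (10 microM if undetermined). Targets were multi-cell spheroids of tumour lines plus HUVEC and MSC stromal cells.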",
  "data": [
    {"smiles": "CC(C)n1nc(-c2ccc3oc(N)nc3c2)c2c(N)ncnc21", "note": "+ CCn1c(-c2cc(N3CCN(C)CC3)cnc2C(C)OC)c2c3cc(ccc31)-c1csc(n1)CC(NC(=O)C1CC1C)C(=O)N1CCCC(N1)C(=O)OCC(C)(C)C2", "values": [
      {"measurement": "IC50", "setting": "second compound 0.000949 µM", "result": 0.0627, "unit": "µM"},
      {"measurement": "IC50", "setting": "second compound 0.003 µM", "result": 0.0679, "unit": "µM"},
      {"measurement": "IC50", "setting": "second compound 0.00949 µM", "result": 0.0481, "unit": "µM"},
      {"measurement": "IC50", "setting": "second compound 0.03 µM", "result": 0.0413, "unit": "µM"},
      {"measurement": "IC50", "setting": "second compound 0.0949 µM", "result": 0.0188, "unit": "µM"},
      {"measurement": "IC50", "setting": "second compound 0.3 µM", "result": "< 0.000316", "unit": "µM"},
      {"measurement": "viability, T/C", "setting": "second compound 0.000949 µM, first compound 0.000316 µM", "result": 88.2, "unit": "%"},
      {"measurement": "viability, T/C", "setting": "second compound 0.000949 µM, first compound 0.001 µM", "result": 97.4, "unit": "%"},
      {"measurement": "viability, T/C", "setting": "second compound 0.000949 µM, first compound 0.00316 µM", "result": 98.9, "unit": "%"},
      {"measurement": "viability, T/C", "setting": "second compound 0.000949 µM, first compound 0.01 µM", "result": 106, "unit": "%"},
      {"measurement": "viability, T/C", "setting": "second compound 0.000949 µM, first compound 0.0316 µM", "result": 62.9, "unit": "%"},
      {"measurement": "viability, T/C", "setting": "second compound 0.000949 µM, first compound 0.1 µM", "result": 41.2, "unit": "%"},
      {"measurement": "viability, T/C", "setting": "second compound 0.003 µM, first compound 0.000316 µM", "result": 99.4, "unit": "%"},
      {"measurement": "viability, T/C", "setting": "second compound 0.003 µM, first compound 0.001 µM", "result": 102, "unit": "%"},
      {"measurement": "viability, T/C", "setting": "second compound 0.003 µM, first compound 0.00316 µM", "result": 102, "unit": "%"},
      {"measurement": "viability, T/C", "setting": "second compound 0.003 µM, first compound 0.01 µM", "result": 100, "unit": "%"},
      {"measurement": "viability, T/C", "setting": "second compound 0.003 µM, first compound 0.0316 µM", "result": 69.7, "unit": "%"},
      {"measurement": "viability, T/C", "setting": "second compound 0.003 µM, first compound 0.1 µM", "result": 40, "unit": "%"},
      {"measurement": "viability, T/C", "setting": "second compound 0.00949 µM, first compound 0.000316 µM", "result": 102, "unit": "%"},
      {"measurement": "viability, T/C", "setting": "second compound 0.00949 µM, first compound 0.001 µM", "result": 111, "unit": "%"},
      {"measurement": "viability, T/C", "setting": "second compound 0.00949 µM, first compound 0.00316 µM", "result": 93.6, "unit": "%"},
      {"measurement": "viability, T/C", "setting": "second compound 0.00949 µM, first compound 0.01 µM", "result": 94.7, "unit": "%"},
      {"measurement": "viability, T/C", "setting": "second compound 0.00949 µM, first compound 0.0316 µM", "result": 57.6, "unit": "%"},
      {"measurement": "viability, T/C", "setting": "second compound 0.00949 µM, first compound 0.1 µM", "result": 35.9, "unit": "%"},
      {"measurement": "viability, T/C", "setting": "second compound 0.03 µM, first compound 0.000316 µM", "result": 89.5, "unit": "%"},
      {"measurement": "viability, T/C", "setting": "second compound 0.03 µM, first compound 0.001 µM", "result": 86.5, "unit": "%"},
      {"measurement": "viability, T/C", "setting": "second compound 0.03 µM, first compound 0.00316 µM", "result": 89.6, "unit": "%"},
      {"measurement": "viability, T/C", "setting": "second compound 0.03 µM, first compound 0.01 µM", "result": 92, "unit": "%"},
      {"measurement": "viability, T/C", "setting": "second compound 0.03 µM, first compound 0.0316 µM", "result": 54, "unit": "%"},
      {"measurement": "viability, T/C", "setting": "second compound 0.03 µM, first compound 0.1 µM", "result": 36.8, "unit": "%"},
      {"measurement": "viability, T/C", "setting": "second compound 0.0949 µM, first compound 0.000316 µM", "result": 82.2, "unit": "%"},
      {"measurement": "viability, T/C", "setting": "second compound 0.0949 µM, first compound 0.001 µM", "result": 84.1, "unit": "%"},
      {"measurement": "viability, T/C", "setting": "second compound 0.0949 µM, first compound 0.00316 µM", "result": 77.1, "unit": "%"},
      {"measurement": "viability, T/C", "setting": "second compound 0.0949 µM, first compound 0.01 µM", "result": 63.1, "unit": "%"},
      {"measurement": "viability, T/C", "setting": "second compound 0.0949 µM, first compound 0.0316 µM", "result": 39, "unit": "%"},
      {"measurement": "viability, T/C", "setting": "second compound 0.0949 µM, first compound 0.1 µM", "result": 35, "unit": "%"},
      {"measurement": "viability, T/C", "setting": "second compound 0.3 µM, first compound 0.000316 µM", "result": 41.6, "unit": "%"},
      {"measurement": "viability, T/C", "setting": "second compound 0.3 µM, first compound 0.001 µM", "result": 45.7, "unit": "%"},
      {"measurement": "viability, T/C", "setting": "second compound 0.3 µM, first compound 0.00316 µM", "result": 37, "unit": "%"},
      {"measurement": "viability, T/C", "setting": "second compound 0.3 µM, first compound 0.01 µM", "result": 21.1, "unit": "%"},
      {"measurement": "viability, T/C", "setting": "second compound 0.3 µM, first compound 0.0316 µM", "result": 21.8, "unit": "%"},
      {"measurement": "viability, T/C", "setting": "second compound 0.3 µM, first compound 0.1 µM", "result": 17.1, "unit": "%"}
    ]}
  ]
}
